From patent publication EP4050002A1, “ANTI-PROLIFERATIVE AGENTS” (First Health Pharmaceuticals B.V., priority 2021, dated 2022)
pIC50: −log10 of the molar value. Converted amounts (≈) assume the structure as drawn. Where a name gives a salt, the structure may show the parent alone. Read-outs that look alike come from different tables or passages of the source.

Columns and labels:
[1] = test system: MDAMB231 cell line; assay: Cytotoxicity, cell count method; type: cell-based, human; conditions: MDAMB231, 72 hours of incubation
Description: (§1) The anti-tumor activity of the compounds of the present invention was evaluated as the effect on the proliferation and survival of tumor cells by counting the number of living cells in presence or absence of the compounds ("cell count method"), and as the effect on the viability and metabolic activity of the cells, by using particular substrates that are converted by cellular enzymes into coloured or luminescent products, proportionally with metabolic activity and state of the cell, such as the MTS tetrazolium compound ("MTS method") or luciferin ("ATP-based method") respectively.
(§2) Cells were seeded at 3 to 5 x 10^4 cells/well density depending on cell lines and maintained at 37°C in 5% CO2. After 24 hours cells were treated with ascending concentrations of the investigational compounds and the reference (5-fluoro-Uracyl) in a range from 0 to 100 µM. Compounds were dissolved in DMSO which final concentration in each well was 0.5% v:v. After 72 h of incubation with compounds, the cells were detached with trypsin and re-suspended in 1 ml of complete medium; the cell number was evaluated using a Z2 Coulter Counter ("cell count method") (Attallah and Johnson, A simple highly sensitive methods for the determination of cell viability using an electronic particle analyzer, Coulter counter J. Immunol. Methods. 1981, 41, 155; Leonardi et al., Activated kinase screening identifies the IKBKE oncogene as a positive regulator of autophagy. Autophagy, 2019, 15, 312). Alternatively, after the 72 hours of incubation with compounds, the MTS solution (CellTiter 96® AQueous One Solution Cell Proliferation Assay) is added to each well and absorbance at 490 nm wavelength is read after 2 hours of incubation ("MTS method"). Results in Tables 8-13, 17, 18 were obtained with the cell count method. Results in Tables 14-15 were obtained with the MTS method. Results in Table 16 were obtained with ATP-based method.

[2] = test system: A549 Red-FLuc; assay: Cytotoxicity, cell count method; type: cell-based; conditions: Homo sapiens, 72 hours of incubation
Description: as §1, §2

[3] = Kinetic solubility (turbidimetry); type: physicochemical; conditions: for solubility at 2 h: 37 °C, kinetic from dmso stock; for Absorbance at 620nm: 2 h
Description: Kinetic solubility was assessed in phosphate buffered saline at pH 7.4 according to the turbidimetry method. Turbidity (precipitation) was measured by absorbance at 620 nm following incubation at 37°C for 2 h. Stock solution of compounds in DMSO were prepared to produce the desired final range of concentrations, then these were added to the buffer to obtain the final test compound concentrations (1 µM, 3 µM, 10 µM, 30 µM, 100 µM), with a final DMSO concentration 1%). Solubility was estimated from the concentration of tested compound that produced a significant increase in absorbance (≥ 0.003 OD at 620 nm) above vehicle control (1% DMSO in water). Miconazole, Reserpine and Propranolol were used as controls.

[4] = molecular target: DDX3X (Homo sapiens, UniProt O00571); assay: nanoDSF enzymatic binding (melting temperature shift); set-up: human DDX3X (residues 132-607, UniProtID: 000571, produced by Proteros GmbH); purchased Proteros GmbH; conditions: DDX3X with AMPPNP 100 µM, no compound
Source text: The binding of compounds to DDX3X have been assessed by nanoDSF analysis (NanoTemper Technologies GmbH, Flößergasse 4, 81369 München, Germany). NanoDSF technology is a Differential Scanning Fluorimetry method which measures the protein stability with high resolution without the need of a dye. In particular it measures the changes of the intrinsic tryptophan fluorescence at 330 and 350 nm and it is used to determine the melting temperature of a protein. In the folded state the residues of tryptophan are buried in the hydrophobic core. During denaturation the residues are more exposed and the fluorescence changes in both intensity and wavelength. In a typical experiment, the protein is mixed with the ligand in the reaction buffer and transferred into a capillary. The fluorescence is monitored over temperature gradient between 20 and 95°C with an increment of 2.5°C per minute. The interaction of the ligand to the folded state of the protein shifts the protein melting temperature (Tm) at higher or lower temperature.
Experimental conditions: the experiments were conducted with the device Prometheus NT.48 (NanoTemper Technologies GmbH), the enzyme used was the human DDX3X (residues 132-607, UniProtID: 000571, produced by Proteros GmbH). The assessed compounds were dissolved in pure DMSO adequate to obtain a concentration of compound of 100µM and DMSO 1% (v:v) in final solution. Reaction buffer for DDX3X was 20 mM HEPES, pH 7.5, 0.5 mM TCEP, 500 mM NaCl, 10% (v:v) Glycerin, with a final reaction volume of 10 µL and a final DMSO concentration of 1% (v:v). The reaction was performed in "High sensitivity capillaries" in the range of 20-95°C with a heating rate of 2.5°C/min, with an incubation time of 60 minutes.
• 1) Add appropriate volume of target enzyme in reaction buffer • 2) Add compound(s) in 100% DMSO (1% final DMSO conc.) • 3) Fill the capillary • 4) Measure fluorescence
The assay development was performed with DDX3X protein alone showing a Tm at 54.6 °C.
Binding of compound 5 was assessed with the NanoDSF technique, evaluating the association of the aforementioned compound with APO DDX3X and in presence of a competitor for the ATP binding site, Adenylyl imidodiphosphate (AMPPNP) to assess competition of compound 5 for the DDX3X ATP binding site. Table 6. Final protein and compound concentrations in the various assay setup:
All the measures were performed in triplicate and the average (Mean Tm) and standard deviation (SD) were calculated with the following equations: [formula] and SD = sqrt((∑((Tm−Mean Tm))^2)/(n−1)) [formula]
A change of 5xSD from the 1% DMSO control mean is considered to be a significant Tm change. Test of DDX3X with 1% DMSO was performed to obtain the reference melting temperature of the protein alone. Compounds are considered as binders if the Tm shifts by >= 5 times the standard deviation of the control (protein in the absence of compound). Table 7. DDX3X melting temperatures (Tm) at various experimental conditions

Sequence of DDX3X (O00571 132-607): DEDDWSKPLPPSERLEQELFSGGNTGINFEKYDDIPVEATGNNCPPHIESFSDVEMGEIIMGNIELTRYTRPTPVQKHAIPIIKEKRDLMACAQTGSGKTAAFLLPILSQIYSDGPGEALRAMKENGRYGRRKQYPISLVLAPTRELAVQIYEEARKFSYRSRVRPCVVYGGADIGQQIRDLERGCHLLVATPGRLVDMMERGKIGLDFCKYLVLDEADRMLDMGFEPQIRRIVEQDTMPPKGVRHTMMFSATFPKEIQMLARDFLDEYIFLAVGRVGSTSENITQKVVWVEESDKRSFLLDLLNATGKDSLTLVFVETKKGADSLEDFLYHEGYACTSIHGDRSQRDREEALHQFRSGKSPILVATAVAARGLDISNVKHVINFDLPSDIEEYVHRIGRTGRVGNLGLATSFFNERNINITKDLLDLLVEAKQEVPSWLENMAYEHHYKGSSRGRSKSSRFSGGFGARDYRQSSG

## CCCCc1cn(-c2ccc(-c3nnc(-c4ccccc4)o3)cc2)nn1 [Compound 3, 2-(4-(4-butyl-1H-1,2,3-triazol-1-yl)phenyl)-5-phenyl-1,3,4-oxadiazole]
[1]
  pIC50: 5.22

## CCCCc1cn(-c2ccc(-c3nnc(-c4ccccc4OC(F)F)o3)cc2)nn1 [Compound 8, 2-(4-(4-butyl-1H-1,2,3-triazol-1-yl)phenyl)-5-(2-(difluoromethoxy)phenyl)-1,3,4-oxadiazole]
[1]; Homo sapiens, MDA-MB-231, 72 h
  pIC50: 3.00

## CCCCc1cn(-c2ccc(-c3nnc(-c4cc(C(C)C)ccc4C)o3)cc2)nn1 [Compound 6, 2-(4-(4-butyl-1H-1,2,3-triazol-1-yl)phenyl)-5-(5-isopropyl-2-methylphenyl)-1,3,4-oxadiazole]
[1]; Homo sapiens, MDA-MB-231, 72 h
  pIC50: 4.46

## CCCCc1noc(-c2ccc(-c3nnc(-c4cccc(Cl)c4F)o3)cc2)n1 [Compound 1, 3-Butyl-5-(4-(5-(3-chloro-2-fluorophenyl)-1,3,4-oxadiazol-2-yl)phenyl)-1,2,4-oxadiazole]
[1]; Homo sapiens, MDA-MB-231, 72 h
  pIC50: 3.00

## CCCCc1cn(-c2ccc(-c3nnc(-c4cccc5cnccc45)o3)cc2)nn1 [Compound 7, 2-(4-(4-butyl-1H-1,2,3-triazol-1-yl)phenyl)-5-(isoquinolin-5-yl)-1,3,4-oxadiazole]
[1]; Homo sapiens, MDA-MB-231, 72 h
  pIC50: 3.67

## CCCCc1cn(-c2ccc(-c3nnc(-c4cccc(OC5CCCC5)c4)o3)cc2)nn1 [Compound 22, 2-(4-(4-butyl-1H-1,2,3-triazol-1-yl)phenyl)-5-(3-(cyclopentyloxy)phenyl)-1,3,4-oxadiazole]
[2]
  pIC50: 5.47

## CCCCc1cn(-c2ccc(-c3nnc(-c4ccc(C5CCNCC5)cc4)o3)cc2)nn1 [Compound 19, 2-(4-(4-butyl-1H-1,2,3-triazol-1-yl)phenyl)-5-(4-(piperidin-4-yl)phenyl)-1,3,4-oxadiazole hydrochloride]
[2]
  pIC50: 5.77

## Clc1ccc(COC(Cn2ccnc2)c2ccc(Cl)cc2Cl)c(Cl)c1 (stereo not drawn) [Miconazole]
[3]; pH 7.4, aqueous buffer
  solubility at 2 h: 10 to 30 µM (≈ 4.16 to 12.5 µg/mL)
[3]; 1 µM, pH 7.4
  Absorbance at 620nm: 0.037
[3]; 3 µM, pH 7.4
  Absorbance at 620nm: 0.037
[3]; 10 µM, pH 7.4
  Absorbance at 620nm: 0.037
[3]; 30 µM, pH 7.4
  Absorbance at 620nm: 0.044
[3]; 100 µM, pH 7.4
  Absorbance at 620nm: 0.053

## COC(=O)[C@H]1[C@H]2C[C@@H]3c4[nH]c5cc(OC)ccc5c4CCN3C[C@H]2C[C@@H](OC(=O)c2cc(OC)c(OC)c(OC)c2)[C@@H]1OC [Reserpine]
[3]; pH 7.4, aqueous buffer
  solubility at 2 h: 30 to 100 µM (≈ 18.3 to 60.9 µg/mL)
[3]; 1 µM, pH 7.4
  Absorbance at 620nm: 0.037
[3]; 3 µM, pH 7.4
  Absorbance at 620nm: 0.037
[3]; 10 µM, pH 7.4
  Absorbance at 620nm: 0.037
[3]; 30 µM, pH 7.4
  Absorbance at 620nm: 0.040
[3]; 100 µM, pH 7.4
  Absorbance at 620nm: 0.058

## CC(C)NCC(O)COc1cccc2ccccc12 (stereo not drawn) [Propranolol]
[3]; aqueous buffer, kinetic solubility, PBS pH 7.4, read-out: solubility
  solubility at 2 h: > 100 µM
[3]; conc. 1 µM, PBS pH 7.4, 37°C
  Absorbance at 620nm: 0.038
[3]; conc. 3 µM, PBS pH 7.4, 37°C
  Absorbance at 620nm: 0.037
[3]; conc. 10 µM, PBS pH 7.4, 37°C
  Absorbance at 620nm: 0.039
[3]; conc. 30 µM, PBS pH 7.4, 37°C
  Absorbance at 620nm: 0.038
[3]; conc. 100 µM, PBS pH 7.4, 37°C
  Absorbance at 620nm: 0.037

## Nc1ncnc2c1ncn2[C@@H]1O[C@H](COP(=O)(O)OP(=O)(O)NP(=O)(O)O)[C@@H](O)[C@H]1O [AMPPNP, Adenylyl imidodiphosphate, reference compound]
[4]
  Tm: 54.7 °C
  effect on Tm upon binding: no significant effect on Tm

## CCCCc1cn(-c2ccc(-c3nnc(-c4ccccc4F)o3)cc2)nn1 [Compound 9, 2-(4-(4-butyl-1H-1,2,3-triazol-1-yl)phenyl)-5-(2-fluorophenyl)-1,3,4-oxadiazole]
[1]; Homo sapiens, MDA-MB-231, 72 h
  pIC50: 4.37

## CCCCc1cn(-c2ccc(-c3nnc(-c4ccccc4C)o3)cc2)nn1 [Compound 4, 2-(4-(4-butyl-1H-1,2,3-triazol-1-yl)phenyl)-5-(o-tolyl)-1,3,4-oxadiazole]
[1]; Homo sapiens, MDA-MB-231, 72 h
  pIC50: 4.41

## CCCCc1cn(-c2ccc(-c3nnc(-c4ccccc4)o3)cc2)nn1 [Compound 2, 2-(4-(4-butyl-1H-1,2,3-triazol-1-yl)phenyl)-5-phenyl-1,3,4-oxadiazole]
[1]; Homo sapiens, MDA-MB-231, 72 h
  pIC50: 5.09
